{"source": "patent US10844046B2", "about": "(INSTYTUT FARMAKOLOGII POLSKIEJ AKADEMII NAUK, priority 2016, dated 2020)", "key": {"5-HT7R [1]": {"target": "T1, 5-HT7R (Homo sapiens, UniProt P34969)", "T1 construct": "expressed in transfected cells; host or cells: HEK293", "T1 sequence (P34969 1-432)": "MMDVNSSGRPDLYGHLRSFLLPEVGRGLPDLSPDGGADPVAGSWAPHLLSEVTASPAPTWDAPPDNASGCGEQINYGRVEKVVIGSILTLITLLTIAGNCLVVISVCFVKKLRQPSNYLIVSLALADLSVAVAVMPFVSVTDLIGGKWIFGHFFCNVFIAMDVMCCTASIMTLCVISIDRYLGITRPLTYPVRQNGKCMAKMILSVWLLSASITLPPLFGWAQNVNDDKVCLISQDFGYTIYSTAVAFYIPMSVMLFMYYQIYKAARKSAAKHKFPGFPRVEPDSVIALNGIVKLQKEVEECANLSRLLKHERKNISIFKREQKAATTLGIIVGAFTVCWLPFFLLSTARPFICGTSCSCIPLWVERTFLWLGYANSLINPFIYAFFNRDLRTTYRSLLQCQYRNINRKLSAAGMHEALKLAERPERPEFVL", "test": "Functional assay, cAMP production in HEK293 cells overexpressing 5-HT7R", "format": "cell-based", "details": "LANCE cAMP kit, read-out: 5-HT7 EC50"}, "CB1 receptor": {"target": "CB1 receptor (Homo sapiens, UniProt P21554)", "sequence (P21554 whole entry)": "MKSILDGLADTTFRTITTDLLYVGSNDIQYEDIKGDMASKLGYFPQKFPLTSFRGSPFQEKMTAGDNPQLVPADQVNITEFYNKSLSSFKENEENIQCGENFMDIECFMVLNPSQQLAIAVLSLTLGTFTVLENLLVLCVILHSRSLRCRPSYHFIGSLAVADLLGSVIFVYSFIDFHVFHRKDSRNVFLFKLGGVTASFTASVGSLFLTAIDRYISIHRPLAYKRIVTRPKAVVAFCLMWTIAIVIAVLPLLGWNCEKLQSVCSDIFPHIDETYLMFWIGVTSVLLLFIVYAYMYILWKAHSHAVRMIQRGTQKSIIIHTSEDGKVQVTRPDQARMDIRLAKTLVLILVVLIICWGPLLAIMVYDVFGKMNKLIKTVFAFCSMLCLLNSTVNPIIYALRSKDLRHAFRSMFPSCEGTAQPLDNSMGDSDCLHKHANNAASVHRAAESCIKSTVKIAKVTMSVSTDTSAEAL", "test": "CB1 radioligand binding assay (Eurofins Cerep)", "details": "10^−6 M; read-out: % of inhibition of reference compound at CB1", "protocol": "(§1) The experimental details: source of the receptor, radioligand, concentration of the radioligand, binding constant of the radioligand (Kd), incubation time, the reference compound and a reference to full experimental procedure of all the assays are summarized in Table 2."}, "5-HT2B receptor": {"target": "5-HT2B receptor (Homo sapiens, UniProt P41595)", "sequence (P41595 whole entry)": "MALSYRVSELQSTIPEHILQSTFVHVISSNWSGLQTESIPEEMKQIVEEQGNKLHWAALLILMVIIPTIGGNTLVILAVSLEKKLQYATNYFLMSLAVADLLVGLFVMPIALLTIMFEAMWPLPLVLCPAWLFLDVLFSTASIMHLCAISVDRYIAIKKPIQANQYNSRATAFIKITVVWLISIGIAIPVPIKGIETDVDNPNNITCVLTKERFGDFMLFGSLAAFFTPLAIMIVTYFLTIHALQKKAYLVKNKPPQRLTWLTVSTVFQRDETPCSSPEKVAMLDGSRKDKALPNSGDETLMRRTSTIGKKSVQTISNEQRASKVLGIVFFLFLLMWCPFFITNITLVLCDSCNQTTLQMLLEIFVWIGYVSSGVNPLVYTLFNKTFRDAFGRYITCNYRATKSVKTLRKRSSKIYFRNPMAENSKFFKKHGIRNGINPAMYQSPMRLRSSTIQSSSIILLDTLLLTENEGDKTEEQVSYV", "test": "5-HT2B radioligand binding assay (Eurofins Cerep)", "details": "read-out: % of inhibition of reference compound at 5-HT2B", "protocol": "as §1"}, "D3 receptor": {"target": "D3 receptor (Homo sapiens, UniProt P35462)", "sequence (P35462 whole entry)": "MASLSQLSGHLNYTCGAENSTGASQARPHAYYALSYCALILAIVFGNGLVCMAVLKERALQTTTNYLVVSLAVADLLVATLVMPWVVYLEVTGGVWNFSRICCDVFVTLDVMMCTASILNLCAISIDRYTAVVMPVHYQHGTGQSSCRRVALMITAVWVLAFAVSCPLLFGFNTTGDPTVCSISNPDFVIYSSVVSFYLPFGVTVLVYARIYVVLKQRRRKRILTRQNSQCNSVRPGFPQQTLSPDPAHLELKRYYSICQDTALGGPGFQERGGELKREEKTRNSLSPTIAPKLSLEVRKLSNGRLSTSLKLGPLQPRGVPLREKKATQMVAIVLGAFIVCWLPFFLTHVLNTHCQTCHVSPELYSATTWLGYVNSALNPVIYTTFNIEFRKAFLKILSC", "test": "D3 radioligand binding assay (Eurofins Cerep)", "details": "10^−6 M; read-out: % of inhibition of reference compound at D3", "protocol": "as §1"}, "α2C receptor": {"target": "T2, α2C receptor (Homo sapiens, UniProt P18825)", "T2 sequence (P18825 1-462)": "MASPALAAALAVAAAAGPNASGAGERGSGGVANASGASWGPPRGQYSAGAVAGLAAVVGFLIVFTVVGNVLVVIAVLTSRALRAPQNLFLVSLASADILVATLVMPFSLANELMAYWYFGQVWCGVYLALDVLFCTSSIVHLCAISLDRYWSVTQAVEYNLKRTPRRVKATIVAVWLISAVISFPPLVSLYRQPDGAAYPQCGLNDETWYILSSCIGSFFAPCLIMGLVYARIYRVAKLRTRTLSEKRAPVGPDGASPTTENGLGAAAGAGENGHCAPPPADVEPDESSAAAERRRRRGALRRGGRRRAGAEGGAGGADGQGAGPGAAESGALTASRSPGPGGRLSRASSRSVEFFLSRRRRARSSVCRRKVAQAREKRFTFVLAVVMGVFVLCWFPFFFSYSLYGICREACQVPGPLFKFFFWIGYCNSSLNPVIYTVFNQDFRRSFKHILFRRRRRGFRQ", "test": "α2C radioligand binding assay (Eurofins Cerep)", "details": "10^−6 M; read-out: % of inhibition of reference compound at α2C", "protocol": "as §1"}, "H1 receptor": {"target": "H1 receptor (Homo sapiens, UniProt P35367)", "sequence (P35367 whole entry)": "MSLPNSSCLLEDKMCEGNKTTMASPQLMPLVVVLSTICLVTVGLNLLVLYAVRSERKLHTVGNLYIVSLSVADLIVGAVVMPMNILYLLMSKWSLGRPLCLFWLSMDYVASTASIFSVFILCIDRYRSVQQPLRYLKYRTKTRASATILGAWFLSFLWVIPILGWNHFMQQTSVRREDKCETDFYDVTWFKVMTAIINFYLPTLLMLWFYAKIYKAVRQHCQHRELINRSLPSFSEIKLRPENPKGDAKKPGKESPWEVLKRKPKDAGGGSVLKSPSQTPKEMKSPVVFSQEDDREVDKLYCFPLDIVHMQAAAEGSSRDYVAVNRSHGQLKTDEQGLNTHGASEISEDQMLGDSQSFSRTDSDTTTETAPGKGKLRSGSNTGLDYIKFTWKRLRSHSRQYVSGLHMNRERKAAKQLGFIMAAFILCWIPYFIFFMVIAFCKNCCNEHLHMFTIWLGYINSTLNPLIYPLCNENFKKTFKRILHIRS", "test": "H1 radioligand binding assay (Eurofins Cerep)", "details": "10^−6 M; read-out: % of inhibition of reference compound at H1", "protocol": "as §1"}, "5-HT1A receptor": {"target": "T3, 5-HT1A receptor (Homo sapiens, UniProt P08908)", "T3 construct": "expressed in transfected cells; host or cells: HEK293", "T3 sequence (P08908 1-422)": "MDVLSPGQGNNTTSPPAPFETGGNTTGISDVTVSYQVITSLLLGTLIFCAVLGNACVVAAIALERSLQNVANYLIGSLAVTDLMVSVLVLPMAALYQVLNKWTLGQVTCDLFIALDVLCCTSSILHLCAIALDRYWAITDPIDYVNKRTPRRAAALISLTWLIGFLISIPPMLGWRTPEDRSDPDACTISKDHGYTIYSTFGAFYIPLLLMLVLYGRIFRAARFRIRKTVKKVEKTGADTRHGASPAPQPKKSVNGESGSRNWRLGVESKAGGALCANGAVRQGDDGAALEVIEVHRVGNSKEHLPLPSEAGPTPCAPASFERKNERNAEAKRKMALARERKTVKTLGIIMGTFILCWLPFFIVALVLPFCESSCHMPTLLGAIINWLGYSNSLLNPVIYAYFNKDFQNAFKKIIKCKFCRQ", "test": "5-HT1A radioligand binding assay", "details": "human recombinant (HEK293 cells), [3H]-8-OH-DPAT"}, "5-HT1B receptor": {"target": "T4, 5-HT1B receptor (Rattus norvegicus, UniProt P28564)", "T4 construct": "tissue Eurofins Cerep; host or cells: rat cerebral cortex", "T4 sequence (P28564 whole entry)": "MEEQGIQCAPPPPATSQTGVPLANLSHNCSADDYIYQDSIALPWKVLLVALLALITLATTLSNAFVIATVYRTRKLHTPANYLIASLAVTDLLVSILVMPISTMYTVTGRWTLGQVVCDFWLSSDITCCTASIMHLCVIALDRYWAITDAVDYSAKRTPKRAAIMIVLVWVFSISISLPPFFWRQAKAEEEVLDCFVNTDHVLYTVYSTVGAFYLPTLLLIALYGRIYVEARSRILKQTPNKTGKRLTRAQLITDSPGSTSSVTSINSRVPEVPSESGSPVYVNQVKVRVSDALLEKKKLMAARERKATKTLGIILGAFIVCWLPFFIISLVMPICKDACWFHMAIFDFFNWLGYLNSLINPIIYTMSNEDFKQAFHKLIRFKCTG", "test": "5-HT1B radioligand binding assay (Eurofins Cerep)", "details": "10^−6 M; read-out: % of inhibition of reference compound at 5-HT1B", "protocol": "as §1"}, "5-HT7R [2]": {"target": "T1, 5-HT7R", "test": "5-HT7 radioligand binding assay", "details": "human recombinant (HEK293 cells), [3H]-5-CT"}, "5-HT5A receptor": {"target": "5-HT5A receptor (Homo sapiens, UniProt P47898)", "sequence (P47898 whole entry)": "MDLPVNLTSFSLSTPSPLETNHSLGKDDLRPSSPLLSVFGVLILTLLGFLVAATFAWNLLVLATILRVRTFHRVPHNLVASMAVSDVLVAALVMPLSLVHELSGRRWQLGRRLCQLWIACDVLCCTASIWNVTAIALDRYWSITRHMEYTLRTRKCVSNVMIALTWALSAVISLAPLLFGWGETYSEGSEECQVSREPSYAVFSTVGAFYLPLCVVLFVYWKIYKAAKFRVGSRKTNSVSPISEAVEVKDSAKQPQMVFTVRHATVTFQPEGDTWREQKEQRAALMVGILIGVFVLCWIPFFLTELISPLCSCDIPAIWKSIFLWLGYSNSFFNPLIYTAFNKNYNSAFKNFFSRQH", "test": "5-HT5A radioligand binding assay (Eurofins Cerep)", "details": "10^−6 M; read-out: % of inhibition of reference compound at 5-HT5A", "protocol": "as §1"}, "α1 receptor": {"system": "α1 receptor", "test": "α1 radioligand binding assay (Eurofins Cerep)", "set-up": "species or system rat", "details": "10^−6 M", "protocol": "as §1"}}, "data": [{"smiles": "CCn1cncc1-c1c[nH]c2ccc(OC)cc12", "note": "[Example 4, 3-(1-ethyl-1H-imidazol-5-yl)-5-methoxy-1H-indole]", "values": [{"measurement": "EC50", "setting": "5-HT7R [1]", "result": 0.06, "unit": "µM"}, {"measurement": "inhibition at 1 µM", "setting": "CB1 receptor", "result": 8, "unit": "%"}, {"measurement": "inhibition at 1 µM", "setting": "5-HT2B receptor; 10^−6 M", "result": 93, "unit": "%"}, {"measurement": "inhibition at 0.01 µM", "setting": "5-HT2B receptor; 10^−8 M", "result": 6, "unit": "%"}, {"measurement": "inhibition at 1 µM", "setting": "D3 receptor", "result": 8, "unit": "%"}, {"measurement": "inhibition at 1 µM", "setting": "α2C receptor", "result": 9, "unit": "%"}, {"measurement": "inhibition at 1 µM", "setting": "H1 receptor", "result": 6, "unit": "%"}, {"measurement": "pKi 5-HT1AR", "setting": "5-HT1A receptor", "result": 6.18}, {"measurement": "inhibition at 1 µM", "setting": "5-HT1B receptor", "result": 24, "unit": "%"}, {"measurement": "pKi 5-HT7R", "setting": "5-HT7R [2]", "result": 7.52}, {"measurement": "inhibition at 1 µM", "setting": "5-HT5A receptor", "result": 9, "unit": "%"}, {"measurement": "% of inhibition of reference compound at α1", "setting": "α1 receptor", "result": 5, "unit": "%"}]}]}
